The record followed here is paper PMC3835791, “Non-Invasive Imaging of Tumors by Monitoring Autotaxin Activity Using an Enzyme-Activated Near-Infrared Fluorogenic Substrate” (PLoS ONE, 2013).

In data set [1] the target is T1, Purified human ATX (Homo sapiens, UniProt Q13822).
T1 construct: purchased Echelon Biosciences, Inc. (Salt Lake City, UT)
Nature of the data set: Evaluation of ATX inhibition with fluorogenic substrates (AR-2 or FS-3). The format is biochemical. The note with it: human ATX 2 nM, 37°C, Ki determined from the IC50. The method, then: DMSO was spiked into each reaction mixture to equalize vehicle concentrations. Purified human ATX (2 nM final concentration) was mixed with varying concentrations of inhibitor at 37°C for 10 min, then AR-2 or FS-3 was added to a final concentration of 1 µM. The rates of fluorescence increase were measured for up to 2 h. The initial velocity of fluorescence increase was determined and normalized to control reactions. The IC50 of each compound was calculated by fitting a standard curve using a sigmoidal dose-response (variable slope) nonlinear regression curve using GraphPad Prism (version 5.03).
(§1) The Michaelis constant (Km) was determined for each compound by measuring the rate of fluorescence increase at varying substrate concentrations using Prism to fit to the Michaelis-Menton equation. Inner filter effects were overcome using previously described methods. The inhibition constant (Ki) for each set of reactions was determined from the IC50 following standard methods.

The target of data set [2] is T2, ATX in conditioned media from MDA-MB-435 and MDA-MB-231 cells (Homo sapiens, UniProt Q13822).
T2 construct: host or cells: MDA-MB-231 and MDA-MB-435 (conditioned media concentrated about 40-fold)
Briefly: AR-2 activation by conditioned media from cancer cells overexpressing ATX, with and without PF-8380. The format is cell-based. The note with it: PF-8380 1 µM, conditioned media from MDA-MB-435 or MDA-MB-231 cells, AR-2 1 µM. The method, then: MDA-MB-231 and MDA-MB-435 cells were grown to 80% confluence in Roswell Park Memorial Institute (RPMI) medium supplemented with 10% FBS. Cells were rinsed twice with PBS and grown for approximately 60 h in RPMI supplemented with 1% FBS. Media were centrifuged at 1000× g for 1 min to collect cells. Conditioned media was prepared by concentrating the supernatant ∼40-fold using Amicon Ultra YM30 (Millipore, Billerica, MA).
(§2) Equal volumes of cell media (COS-7) or conditioned media (MDA-MB-231 or MDA-MB 435) were mixed with buffer to achieve a final concentration of AR-2 (1 µM). All other conditions were as described for purified enzymes.

Data set [3] concerns MDA-MB-231 orthotopic tumor (ATX activity). Briefly: In vivo NIRF imaging and ex vivo tissue analysis of mice with orthotopic tumors. From the text:
Animal studies were approved by the Institutional Animal Care and Use Committee (IACUC) of the University of Utah (protocol numbers 10-10016 and 12-05013). Tumors in mice were established as previously described, [41]. Briefly, approximately ten-week old female nude (Nu/Nu) mice (Charles River Laboratories International, Wilmington, MA) were lightly anesthetized with isoflurane and subcutaneously inoculated with MDA-MB-231 cells in the left thoracic mammary glands. Prior to inoculation, cells were suspended in Extracel to make 5×10^7 cells/mL and each mouse received 0.1 mL of Extracel tumor suspension. To reduce auto-fluorescence arising from the feed, mice were switched to specially formulated diet (2920X, Harlan Laboratories, WI) at least two days prior to imaging.
Six weeks after tumor graft, mice were imaged using AR-2. To visualize tumors, AR-2 was diluted in PBS, filtered through a 0.2 µm porous membrane, and intravenously injected via the lateral vein at 0.5 mg/kg b.w. bolus. The animals were then imaged 48 h after injection with a Pearl Impulse Imager (LI-COR Biosciences, NE) using the 800 nm channel. The fluorescence signals from acquired images were analyzed using Pearl Impulse Software v 2.0 (LI-COR Biosciences) according the manufacturer's protocols. […] ATX-Red dosing, delivery and imaging were unchanged.
Animals were sacrificed, organs were dissected and weighed, then ex vivo fluorescence was imaged and quantified as previously described. Tumors were immediately frozen until further use. Thawed tumors were homogenized in ice cold buffer containing 10 mM Tris pH 7.4, 200 mM NaCl, 10% glycerin, 5 mM EDTA and 1× Halt protease inhibitor cocktail (Thermo Scientific, Rockford, Il.) at a ratio of 40 mg tumor to 1 mL buffer. Samples were centrifuged at 14,000× g at 4°C. ATX levels were determined by diluting supernatants ten times in RD5-10 and assayed using a Human ENPP-2/Autotaxin ELISA (R&D Systems, Minneapolis, MN) and an Autotaxin Sandwich ELISA (Echelon Biosciences, Inc., Salt Lake City, UT) using the manufacturers' protocol. Total protein levels were determined by the method of Bradford. Statistical significance was compared using a two-tailed t-test using Prism.

Data set [4] is described as follows: Pharmacokinetics of AR-2 in plasma after intravenous dosing. The format is in vivo, mice. The method, then: To investigate preliminary PK of AR-2, female BALB/c mice aged 8–10 wks old (Charles River Laboratories, MA) were used. The animals were allowed to acclimatize to housing at least one week prior to use. At day 0, AR-2 was administered as a single bolus injection through lateral tail vein at a dosage of 1.0 mg/kg b.w. The animals were then lightly anesthetized with isoflurane for blood collection at 0, 0.08, 0.25, 0.5, 1, 2, 4, 6, 24, and 48 h after AR-2 administration. Blood samples were collected in EDTA coated tubes by submandibular bleeding or caudal vena cava (at time of sacrifice) with the maximum number of two blood collections from each animal. The collected blood samples were centrifuged, and the plasma was stored at −20°C until analysis.
To determine the concentration of AR-2 in plasma, samples were prepared according to the following procedures. Plasma samples were mixed with nine volumes of tert-butanol∶water (7∶1) then centrifuged at 14,000× g to pellet precipitated proteins. The resulting supernatant was frozen and lyophilized. Samples were then reconstituted in cold PBS and subjected to HPLC analysis using a C18 column (Waters, Milford, MA) with a gradient of 5–60% acetonitrile in 50 mM triethylammonium acetate (pH 6.0). Peaks with absorbance at 778 nm were integrated and compared to mouse plasma samples containing known concentrations of AR-2. The resulting AR-2 concentration versus time data were plotted and fitted with a sum of two exponentials to calculate plasma half-life (t1/2) and various pharmacokinetic parameters using the PK package in R Statistics (version 2.15.1).

In data set [5] the target is T3, ATX in media from COS-7 cells (Homo sapiens, UniProt Q13822).
T3 construct: expressed in transfected cells; host or cells: COS-7
Briefly: AR-2 activation by media from COS-7 cells transfected with ATX-encoding plasmid. The note with it: AR-2 1 µM. The format is cell-based. The method, then: COS-7 cells grown in Dulbecco's Modified Eagle Medium (DMEM) supplemented with 10% FBS and penicillin/streptomycin were transfected with human β ATX cDNA inserted into pcDNA DEST40 (Invitrogen, CA) or mock plasmid in DMEM without FBS using TransIT®-2020 transfection reagent (Mirus Bio, WI) according to the manufacturer's protocol.
as §2

Data set [6] deals with T1, Purified human ATX. Nature of the data set: Michaelis constant of fluorogenic ATX substrates. The format is biochemical. The note with it: fluorogenic ATX substrate, rate of fluorescence increase at varying substrate concentrations. The method, then: (§3) AR-2 (100 nM) was incubated with the indicated enzyme in buffer containing 50 mM Tris-Cl pH 8.0, 5 mM KCl, 1 mM CaCl2, 1 mM MgCl2, 140 mM NaCl, and 1 mg/mL fatty acid free bovine serum albumin. Reactions were immediately placed in a Spectramax M2 plate reader (Molecular Devices, Sunnyvale, CA) set at 37°C, monitoring fluorescence exciting at 750 nm and emitting at 805 nm over time. Unless otherwise stated, all reactions used 10 nM enzyme, except alkaline phosphatase, which was performed at 0.1 unit/µL.
as §1

Data set [7] has as its system human NPP1, human and mouse NPP7, shrimp alkaline phosphatase, human LPLA2 and human INPP4A. Nature of the data set: AR-2 reactions with purified enzymes homologous to ATX (selectivity panel). In kind it is biochemical. The note with it: AR-2 100 nM, 10 nM enzyme (alkaline phosphatase 0.1 unit/µL), versus buffer control. The method, then:
as §3

A further data set concerns the target T4, human ATX (Homo sapiens, UniProt Q13822).
T4 construct: purchased Echelon Biosciences, Inc. (Salt Lake City, UT)
Briefly: AR-2 reactions with purified enzymes: human ATX. Conditions: AR-2 100 nM, 10 nM enzyme. The format is biochemical. The method, then:
as §3

In another data set the target is T5, mouse ATX (Mus musculus, UniProt Q9R1E6).
T5 construct: purchased R&D Systems (Minneapolis, MN)
Nature of the data set: AR-2 reactions with purified enzymes: mouse ATX. In kind it is biochemical. The note with it: AR-2 100 nM, 10 nM enzyme. The method, then:
as §3

Setting [8] is: MDA-MB-231 xenografts, 48 h after AR-2 dosing, ex vivo.

Take `CCCCCCCCCCCCCC(=O)Nc1ccc(CP(=O)(O)O)cc1` [S32826]: the figures for the Ki at Purified human ATX [1] (ATX substrate AR-2 (1 µM)) and at Purified human ATX [1] (ATX substrate FS-3 (1 µM)) were 1.6 ± 1.9 nM and 5.5 ± 3.3 nM, respectively.

In the case of `O=C(CCN1CCN(C(=O)OCc2cc(Cl)cc(Cl)c2)CC1)c1ccc2[nH]c(=O)oc2c1` [PF-8380, reference compound], in data set [2], the “rate of AR-2 fluorescence signal generation in conditioned media with inhibitor” value is given as “dramatically reduced”. Also, the “AR-2 fluorescence signals in excised tumors normalized to protein, inhibitor-treated versus vehicle-treated mice” value in data set [3] (PF-8380 30 mg/kg single oral gavage 20 min prior to AR-2 injection, MDA-MB-231 tumors, P<0.001) is “significantly reduced”.

On to `CC1(C)C(/C=C/C2=C(Oc3ccc(S(=O)(=O)O)cc3)C(=C/C=C3/N(CCCCS(=O)(=O)O)c4ccc(S(=O)(=O)[O-])cc4C3(C)C)/CCC2)=[N+](CCCCCC(=O)NCCCCCC(=O)OC[C@@H](O)COP(=O)(O)OCCNC(=O)CCOCCOCCOCCOCCNC(=O)CCCCCN2/C(=C/C=C3\CCCC(/C=C/C4=[N+](CCCS(=O)(=O)O)c5ccc(N(CCCS(=O)(=O)O)CCCS(=O)(=O)O)cc5C4(C)C)=C3Cl)C(C)(C)c3c2ccc2cc(S(=O)(=O)[O-])ccc32)c2ccc(S(=O)(=O)O)cc21` [AR-2], for which, in [4] (20 g mouse), the “apparent volume of distribution (Vd) in 20 g mouse” value was found to be 8.6 mL. Besides, the “fraction of AR-2 eliminated” value in data set [4] (42 h after dosing (5 half-lives)) was “approximately 97%”. The “half-life of first phase of bi-exponential plasma decrease” value in [4] (BALB/c mice, 1.0 mg/kg i.v. bolus, bi-exponential fit, first phase) amounted to 18 min. Moreover, in data set [4] (mice, i.v.), the “apparent volume of distribution (Vd)” value is given as 432 mL/kg, b.w and the “apparent volume of distribution as share of body weight” value is recorded as ~43 % of body weight. In addition, in data set [5], the “activation of AR-2 by media from ATX-transfected versus mock-transfected COS-7 cells” value is listed as “media from ATX-transfected, but not mock-transfected, cells activated AR-2”. In addition, the Km on Purified human ATX [6] is 660 ± 50 nM. Moreover, in data set [7], the “activation of AR-2 fluorescence by related enzymes” value was “none of the related enzymes tested generated a fluorescence response above buffer control”. Further, in [3] (setting [8]), the “NIRF signal in excised tumors compared to most other organs” value was “strongly elevated”; the “NIRF signal in kidneys and liver” value is “Moderate signals”; the “NIRF signal in stomach” value was “Modest fluorescence”. For the same compound, the “activation of AR-2 fluorescence by human ATX” value on human ATX is “activated AR-2 with similar efficiencies”. In addition, the “activation of AR-2 fluorescence by mouse ATX” value on mouse ATX was “activated AR-2 with similar efficiencies”.
